Experimental data as given in patent US5219873A, “Compounds of 1,2,5,6-tetrahydropyridine which are useful as cholinergic agents” (Roussel UCLAF, priority 1987, dated 1993).
Where two headings read alike, the source gives them in different places.

Tests used:
[1] = Hypothermic activity, male mice (body temperature); format: in vivo, mice (CD1 Charles Rivers); details: for ED (-1 C body temperature): Mus musculus, male mice, read-out: Effective dose (-1° C.)
Procedure: (§1) The products have been utilized in the hydrochloride form.
The test is carried out on male mice (CD1 Charles Rivers), weighing 25-30 g, fasting for 6 hours.
The temperature of the body is noted by means of a thermocouple placed in the rectum to about 1.5 cm and connected to an electric temperature recorder. […]
The degree of hypothermia is evaluated as the difference between the treated animals and the controls, and the dose necessary to reduce the body temperature by 1° C. is determined.
The duration of action of the products has been evaluated by using the dose which reduces the body temperature by 1° to 1.5° C.

[2] = system: ileum isolated from guinea-pig; experiment: Test on ileum isolated from guinea-pig (contraction, agonist activity); format: cell-based; details: Cavia porcellus, Tyrode's solution, 37° C., read-out: pD2 (negative logarithm of the dose which produces 50% of the maximum effect) (converted)
Procedure: as §1
Pieces of the ileum are removed from guinea-pigs killed by decapitation. The isolated ileum is placed in 10 cm^3 of Tyrode's solution at 37° C. and aerated with a mixture of oxygen (95%) and carbon dioxide gas (5%). The contractions due to the products are recorded by means of a detector connected to a polygraph. The products to be tested are added at concentrations between 1.10^-3 M/l and 1.10^-8 M/l.
The products presenting a contraction effect are tested relative to atropine and hexamethonium to establish whether the activity is of the "muscarine" or "nicotine" type.
The agonist activity is expressed in pD2 (negative logarithm of the dose which produces 50% of the maximum effect.

[3] = system: central cholinergic system; details: cited from earlier work
[4] = intravenous route; cited from earlier work
[5] = Diarrhoeic activity, oral, male mice; format: in vivo, mice (CD1, Charles Rivers); details: Mus musculus, read-out: ED50 (dose which caused a diarrhoea in 50% of the animals)
Procedure: as §1
The test is carried out on male mice (CD1, Charles Rivers) weighing 25 to 30 g, fasting for 6 hours.
The control animals receive only the excipient.
After treatment, the animals are put separately in cages the base of which is covered with blotting paper and are put under observation for 30, 60, 120 and 180 minutes.
The sheets of absorbent paper are changed after each observation.
1: feces slightly soft with or without humid aureola.
2: feces slightly soft with presence of a well defined humid circle.
3: feces soft with presence of a large humid circle.
4: feces without consistency with presence of a very large humid circle.

[6] = Acute toxicity, oral, male mice; set-up: species or system mice (CD1 Charles Rivers); details: mouse, in vivo, mortality during 7 days
Procedure: as §1
The test was carried out on male mice (CD1 Charles Rivers) of 22 to 24 g, fasting for 16 hours. […] The mortality is noted during the 7 days following the treatment.

Row | SMILES | ED (-1 C body temperature) ([1]; po, per os) [mg/kg] | ED (-1 C body temperature) ([1]; sc, s.c.) [mg/kg] | EC50 [2] [µM] | ED50 [5] [mg/kg] | LD50 at 168 h [6] [mg/kg] | Variation of the Body Temperature ([1]; 1 mg/kg p.o., 0 min) | Variation of the Body Temperature ([1]; 1 mg/kg p.o., 30 min) [°C] | Variation of the Body Temperature ([1]; 1 mg/kg p.o., 60 min) [°C] | Variation of the Body Temperature ([1]; 1 mg/kg p.o., 120 min) [°C] | Variation of the Body Temperature ([1]; 1 mg/kg p.o., 180 min) [°C] | Variation of the Body Temperature ([1]; 1 mg/kg s.c., 0 min) | Variation of the Body Temperature ([1]; 1 mg/kg s.c., 30 min) [°C] | Variation of the Body Temperature ([1]; 1 mg/kg s.c., 60 min) [°C] | Variation of the Body Temperature ([1]; 1 mg/kg s.c., 120 min) | Variation of the Body Temperature ([1]; 1 mg/kg s.c., 180 min) | also measured
1 | COC(=O)C1=CCCN(C)C1 [Arecoline HBr, reference compound] |  |  |  |  |  |  |  |  |  |  |  |  |  |  |  | Variation of the Body Temperature ([1]; 3.5 mg/kg s.c., 0 min): -0.1 °C; Variation of the Body Temperature ([1]; 3.5 mg/kg s.c., 30 min): -1.5 °C; Variation of the Body Temperature ([1]; 3.5 mg/kg s.c., 60 min): -0.1 °C; Variation of the Body Temperature ([1]; 3.5 mg/kg s.c., 120 min): +0.2 °C; Variation of the Body Temperature ([1]; 3.5 mg/kg s.c., 180 min): +0.2 °C; Variation of the Body Temperature ([1]; 200 mg/kg p.o., 0 min): +0.1 °C; Variation of the Body Temperature ([1]; 200 mg/kg p.o., 30 min): -1.1 °C; Variation of the Body Temperature ([1]; 200 mg/kg p.o., 60 min): -1.0 °C; Variation of the Body Temperature ([1]; 200 mg/kg p.o., 120 min): -0.2 °C; Variation of the Body Temperature ([1]; 200 mg/kg p.o., 180 min): -0.1 °C
2 | COC(=O)C1=CCCN(C)C1 [Arecoline, reference compound] | 194 | 3 | 0.331 | 35 |  |  |  |  |  |  |  |  |  |  |  | activity by oral route [3]: very weak activity by oral route; effect on patients having a memory defect [4]: positive effect on patients having a memory defect
3 | CC(=NO)C1=CCCNC1 [Example 1, 3-acetyl-1,2,5,6-tetrahydropyridine-oxime] | 9 | 11 | 5.62 | 5 | 350 |  |  |  |  |  |  |  |  |  |  | Variation of the Body Temperature ([1]; 10 mg/kg p.o., 0 min): 0 °C; Variation of the Body Temperature ([1]; 10 mg/kg p.o., 30 min): -0.7 °C; Variation of the Body Temperature ([1]; 10 mg/kg p.o., 60 min): -1.0 °C; Variation of the Body Temperature ([1]; 10 mg/kg p.o., 120 min): -0.2 °C; Variation of the Body Temperature ([1]; 10 mg/kg p.o., 180 min): +0.1 °C; Variation of the Body Temperature ([1]; 10 mg/kg s.c., 0 min): 0 °C; Variation of the Body Temperature ([1]; 10 mg/kg s.c., 30 min): -0.6 °C; Variation of the Body Temperature ([1]; 10 mg/kg s.c., 60 min): -0.8 °C; Variation of the Body Temperature ([1]; 10 mg/kg s.c., 120 min): -0.2 °C; Variation of the Body Temperature ([1]; 10 mg/kg s.c., 180 min): 0 °C
4 | CON=C(C)C1=CCCN(C)C1 [Example 2, 1-methyl-3-acetyl-1,2,5,6-tetrahydropyridine-O-methyl-oxime] | 12 | 25 | 14.1 | > 100 | 350 |  |  |  |  |  |  |  |  |  |  | Variation of the Body Temperature ([1]; 20 mg/kg p.o., 0 min): +0.1 °C; Variation of the Body Temperature ([1]; 20 mg/kg p.o., 30 min): -1.3 °C; Variation of the Body Temperature ([1]; 20 mg/kg p.o., 60 min): -1.3 °C; Variation of the Body Temperature ([1]; 20 mg/kg p.o., 120 min): -0.9 °C; Variation of the Body Temperature ([1]; 20 mg/kg p.o., 180 min): 0 °C; Variation of the Body Temperature ([1]; 40 mg/kg s.c., 0 min): +0.1 °C; Variation of the Body Temperature ([1]; 40 mg/kg s.c., 30 min): -1.0 °C; Variation of the Body Temperature ([1]; 40 mg/kg s.c., 60 min): -1.4 °C; Variation of the Body Temperature ([1]; 40 mg/kg s.c., 120 min): -1.1 °C; Variation of the Body Temperature ([1]; 40 mg/kg s.c., 180 min): -0.8 °C
5 | CON=C(C)C1=CCCNC1 [Example 3, 3-acetyl-1,2,5,6-tetrahydropyridine-O-methyl-oxime] | 0.87 | 0.91 | 0.0316 | 0.85 | 125 | +0.1 °C | -1.1 | -1.0 | -0.1 | -0.1 | +0.1 °C | -1.0 | -0.8 | +0.1 °C | +0.1 °C | 
6 | CON=C(C)C1=CCCN(O)C1 [Example 12, 1-N-hydroxyl-3-acetyl-1,2,5,6-tetrahydropyridine-O-methyl-oxime] | 0.77 | 0.72 | 4.07 | 1 | 175 | 0 °C | -1.3 | -1.1 | 0 | 0 | -0.1 °C | -1.4 | -1.3 | +0.1 °C | 0 °C | 
